Measured values: patent publication US20250057959A1, “PHOSPHANE GOLD(I)-N-HETEROCYCLIC CARBENE COMPLEXES FOR TREATING CANCER” (KING FAHD UNIVERSITY OF PETROLEUM AND MINERALS, priority 2023, published 2025)

Tests used:
Format in all cases: cell-based, human
A2780cis = experiment: MTT cell viability assay, cisplatin-resistant A2780cis; details: for Fold resistance (A2780cis/A2780): IC50 A2780cis/IC50 A2780
Description: Human epithelial ovarian cancer A2780 cell line and its cisplatin-resistant clone A2780cis were obtained from Sigma-Aldrich (Milano, Italy). SKOV3 (HTB-77) cells were from the American Type Culture Collection (ATCC). The two cell lines were selected to reflect the two different stages of OvCa and different sensitivity to cisplatin. A2780 cell lines were derived from the ovarian tumor tissue of an untreated patient, while SKOV3 was from the ascitic fluids (after metastasis). […] Cell lines were cultured in RPMI-1640 medium containing 10% fetal bovine serum (FBS) (Gibco, Thermo Fisher Scientific, U.S.A), 1% (v/v) of penicillin (10,000 units/mL)-streptomycin (10 mg/mL), and 1% (v/v) L-glutamine (200 mM) (all from Sigma- Aldrich) at 37° C. in a 5% CO2 fully humidified atmosphere. […] Cisplatin was included as a reference drug. […] Fold resistance was calculated as the ratio of the IC50 of the A2780cis to that of the parental cell line A2780.

A2780 and A2780cis cells [1] = experiment: Apoptosis by flow cytometry (annexin-V/7AAD, caspase-3,7, BAX, Bcl-2)
Experimental: (§1) Results were detected by flow cytometry on a BD FACSCanto II flow cytometer. Data were analyzed using BD FACSDiva version 8.0.1 software (BD Biosciences) unless otherwise indicated. To evaluate apoptosis, tumor cells were treated for 48 hours and then stained for 15 minutes with FITC annexin-V (Thermo Fisher Scientific) and 7AAD (BD Pharmingen). […] For B-cell lymphoma/leukemia-2 (Bcl-2) and Bcl-2 associated x protein (Bax) evaluation, cells were fixed and permeabilized using FIX & PERM cell fixation and cell permeabilization kit (Life Technologies). […] The distribution of cells in different cell cycle phases was quantified using ModFit LT 4.0 software (Verity Software House, Topsham, ME, USA).

A2780 and A2780cis cells [2] = experiment: mitROS generation (MitoSOX red), flow cytometry
Experimental: as §1

OvCa cells = experiment: Western blot of cell cycle regulatory proteins; details: 24 hours
Experimental: Whole-cell lysates were prepared using cold RIPA buffer [150 mM NaCl, 50 mM Tris-HCl (pH 8), 0.1% SDS, 1% Igepal, and 0.5% desoxycholate sodium] containing a protease inhibitor cocktail (Roche Diagnostics S.p.a., Milan, Italy), phosphatase inhibitors 1 mM Na3VO4 and 1 mM NaF (Sigma-Aldrich). Protein concentrations were determined using the BioRad protein assay (Bio-Rad Laboratories, Inc., CA, USA). Equal amounts of proteins were mixed with Laemmli buffer, separated in 4-20% SDS-PAGE (Criterion Precast Gel, BioRad), and blotted onto a nitrocellulose membrane (Amersham, GE Healthcare). Membrane strips were blocked with EveryBilot blocking buffer (Bio-Rad) and incubated at 4° C. overnight with primary antibodies probed with the appropriate antibodies (Table 2) and developed using Immobilon Western chemioluminescent HRP substrate. Images were acquired using a ChemiDoc XRS system (Bio-Rad).

SKOV3 cells = experiment: In vitro wound healing assay (cell migration)
Experimental: Cell migration was assessed using the in vitro wound healing assay. Briefly, cells were grown to confluence and then treated with complex 6. After 24 hours of treatment, the medium was removed and cells were washed then scraped with a pipet tip to create a “wound” in the monolayer and washed again. Fresh medium containing 2% FCS was added. Wounds were photographed at times 0, 24, and 48 hours using an inverted microscope (EclipseTS/100, Nikon, Instruments Europe BV Amsterdam, The Netherlands) at magnification 4. Migration was assessed by measuring the cell-free area (in pixels) with ImageJ-NIH (National Institutes of Health) tool software. The cytoskeleton organization was evaluated by culturing SKOV3 cells onto glass coverslips and performing immunofluorescence staining for α-tubulin and F-actin. SKOV3 cells were treated for 24 hours with complex 6, fixed in 4% paraformaldehyde, permeabilized with 0.5% Triton X-100, and incubated overnight with primary antibody (Table 1) at 4° C. Primary antibody was detected using the appropriate secondary antibody together with phallotoxins (Molecular Probes) and TO-PRO-3 (Thermo Fisher Scientific). Images were acquired using an SP8 confocal microscope (Leica).

**Q.** How did the IC50 (A2780cis; 72 hours treatment, MTT) turn out when `CC(C)c1cccc(C(C)C)c1-n1ccn(-c2c(C(C)C)cccc2C(C)C)[c]1=[Au+][PH](C1CCCCC1)(C1CCCCC1)C1CCCCC1.F[P-](F)(F)(F)(F)F` [Complex 6, [Au(IPr)(C18H33P)] PF6] was run?
**A.** 120 ± 10 nM

**Q.** And the “Fold resistance (A2780cis/A2780)” value (A2780cis)?
**A.** 0.86

**Q.** And the “Fold resistance (A2780cis/A2780)” value (A2780cis; listed as complex 6)?
**A.** 0.86

**Q.** And the “Apoptosis (annexin-V / 7AAD positive cells)” value (A2780 and A2780cis cells [1]; 48 hours, complex 6 and auranofin at IC50 and IC75, cisplatin 0.15 μM and 0.50 μM)?
**A.** increased in a dose-dependent manner

**Q.** And the “Caspase-3,7 activation” value (A2780 and A2780cis cells [1]; FLICA, flow cytometry)?
**A.** activated caspase-3,7

**Q.** And the BAX expression (A2780 and A2780cis cells [1]; flow cytometry)?
**A.** induced the proapoptotic BAX

**Q.** What about the BCL-2 expression (A2780 and A2780cis cells [1]; flow cytometry) of the same compound?
**A.** down-regulated the antiapoptotic BCL-2

**Q.** And the mitROS generation (A2780 and A2780cis cells [2])?
**A.** increased mitochondrial ROS (mitROS) generation in a dose-dependent manner

**Q.** And the “Expression of G1/S phase proteins (CDKs, cyclins, E2F1, pRB)” value (OvCa cells)?
**A.** down-regulated the expression of CDk2, CDk4, CDk6, CycE, CycD1, CycD3

**Q.** And the “Expression of cyclin D regulators” value (OvCa cells)?
**A.** increased the expression of Foxo3A and pGSK-30 and decreased that of Cdc25a, PI3KI, pERK1/2, and bRAF

**Q.** And the SKOV3 migration (SKOV3 cells; 24 hours treatment)?
**A.** decreased the SKOV3 migration

**Q.** What about the “Remaining uncovered area (wound)” value (SKOV3 cells; 48 hours after scratch, highest concentration, control about 5%) of the same compound?
**A.** ~70%
